Source: publication PMC8286840, “Identifying SARS-CoV-2 antiviral compounds by screening for small molecule inhibitors of Nsp3 papain-like protease” (Biochemical Journal, 2021)
Read-outs that look alike come from different tables or passages of the source.

How the values were obtained:
[1] = target: T1, SARS-CoV-2 PLpro (nsp3 1564–1878) (Severe acute respiratory syndrome coronavirus 2, UniProt P0DTD1); assay: biochemical; design: FRET-quenched peptide (Pro3) cleavage by PLpro, 10 min pre-incubation, slope over 20 min, normalised to no-compound control; conditions: low concentration screen, read-out: % of control remaining
[2] = target: T1, SARS-CoV-2 PLpro (nsp3 1564–1878); assay: biochemical; design: FRET-quenched peptide (Pro3) cleavage by PLpro, 10 min pre-incubation, slope over 20 min, normalised to no-compound control; conditions: high concentration screen, read-out: % of control remaining

## CCOC(=O)[C@]12CC1/C(=N\O)c1ccccc1O2 (mixture of isomers) [CPCCOEt]
[1]; Well no.=286
  remaining activity at 1.25 µM: 95.2%
[2]; Well no.=286
  remaining activity at 3.75 µM: 99.4%

## S=C(S)OC1CC2CC1C1CCCC21 (mixture of isomers) [D-609 potassium]
[1]; Well no.=1374
  remaining activity at 1.25 µM: 99.3%
[2]; Well no.=1374
  remaining activity at 3.75 µM: 99%

## CCC(C)n1ncn(-c2ccc(N3CCN(c4ccc(OC[C@H]5CO[C@](Cn6cncn6)(c6ccc(Cl)cc6Cl)O5)cc4)CC3)cc2)c1=O (mixture of isomers) [Itraconazole]
[1]; Well no.=2228
  remaining activity at 1.25 µM: 96.3%
[2]; Well no.=2228
  remaining activity at 3.75 µM: 94.2%

## OC[C@H]1O[C@@H](O[C@@H]2[C@@H](CO)OC(O)(CO)[C@H]2O)[C@H](O)[C@@H](O)[C@H]1O (mixture of isomers) [Lactulose]
[1]; Well no.=8140
  remaining activity at 1.25 µM: 95.7%
[2]; Well no.=8140
  remaining activity at 3.75 µM: 97.6%

## CCCCC(C)(O)C/C=C/[C@H]1[C@H](O)CC(=O)[C@@H]1CCCCCCC(=O)OC (mixture of isomers) [Misoprostol]
[1]; Well no.=2194
  remaining activity at 1.25 µM: 99.5%
[1]; Well no.=7473
  remaining activity at 1.25 µM: 104%
[2]; Well no.=2194
  remaining activity at 3.75 µM: 98%
[2]; Well no.=7473
  remaining activity at 3.75 µM: 103%

## CCCN(CCC)C1CCc2ccc(O)cc2C1 (racemic)
[1]; Well no.=662
  remaining activity at 1.25 µM: 94.1%
[2]; Well no.=662
  remaining activity at 3.75 µM: 94.8%

## CC(N)c1cccc(Cl)c1Cl (racemic)
[1]; Well no.=734
  remaining activity at 1.25 µM: 92.1%
[2]; Well no.=734
  remaining activity at 3.75 µM: 94.8%

## C[C@@H]1O[C@H](C[N+](C)(C)C)C[C@H]1O (racemic)
[1]; Well no.=1037
  remaining activity at 1.25 µM: 97.2%
[2]; Well no.=1037
  remaining activity at 3.75 µM: 98.2%

## CCN1CCCC1CNC(=O)c1cc(S(N)(=O)=O)ccc1OC (racemic)
[1]; Well no.=1174
  remaining activity at 1.25 µM: 105%
[2]; Well no.=1174
  remaining activity at 3.75 µM: 106%

## NC(CCCCCP(=O)(O)O)C(=O)O (racemic)
[1]; Well no.=17
  remaining activity at 1.25 µM: 100%
[2]; Well no.=17
  remaining activity at 3.75 µM: 97.5%

## NC1CCN(O)C1=O (racemic)
[1]; Well no.=250
  remaining activity at 1.25 µM: 101%
[2]; Well no.=250
  remaining activity at 3.75 µM: 103%

## C=CCN1CCc2c(cc(O)c(O)c2Cl)C(c2ccccc2)C1 (racemic)
[1]; Well no.=725
  remaining activity at 1.25 µM: 96.8%
[2]; Well no.=725
  remaining activity at 3.75 µM: 96.5%

## O=C1CCC(N2C(=O)c3ccccc3C2=O)C(=O)N1 (racemic)
[1]; Well no.=1282
  remaining activity at 1.25 µM: 107%
[2]; Well no.=1282
  remaining activity at 3.75 µM: 105%

## CC1CCN=C(N)S1 (racemic)
[1]; Well no.=12
  remaining activity at 1.25 µM: 105%
[2]; Well no.=12
  remaining activity at 3.75 µM: 106%

## CN(C)CCC(c1ccc(Br)cc1)c1ccccn1 (racemic)
[1]; Well no.=219
  remaining activity at 1.25 µM: 97.7%
[2]; Well no.=219
  remaining activity at 3.75 µM: 97.9%

## Cc1o[nH]c(=O)c1CC(N)C(=O)O (racemic)
[1]; Well no.=508
  remaining activity at 1.25 µM: 99.4%
[2]; Well no.=508
  remaining activity at 3.75 µM: 100%

## NC(CCP(=O)(O)O)C(=O)O (racemic)
[1]; Well no.=297
  remaining activity at 1.25 µM: 102%
[2]; Well no.=297
  remaining activity at 3.75 µM: 101%

## COc1cc(C(O)C(=O)O)ccc1O (racemic)
[1]; Well no.=606
  remaining activity at 1.25 µM: 96%
[2]; Well no.=606
  remaining activity at 3.75 µM: 97.2%

## CCC1(c2ccc(N)cc2)CCC(=O)NC1=O (racemic)
[1]; Well no.=202
  remaining activity at 1.25 µM: 100%
[2]; Well no.=202
  remaining activity at 3.75 µM: 102%

## CC(C)NCC(O)c1ccc(NS(C)(=O)=O)cc1 (racemic)
[1]; Well no.=1212
  remaining activity at 1.25 µM: 105%
[2]; Well no.=1212
  remaining activity at 3.75 µM: 103%

## COc1cc(C(O)CN)ccc1O (racemic)
[1]; Well no.=1049
  remaining activity at 1.25 µM: 96.5%
[2]; Well no.=1049
  remaining activity at 3.75 µM: 96.1%

## CN1CCN(C2Cc3ccccc3Sc3ccc(Cl)cc32)CC1 (racemic)
[1]; Well no.=804
  remaining activity at 1.25 µM: 104%
[2]; Well no.=804
  remaining activity at 3.75 µM: 105%

## CC(C)(C)NCC(O)COc1cccc2[nH]c(=O)[nH]c12 (racemic)
[1]; Well no.=629
  remaining activity at 1.25 µM: 101%
[2]; Well no.=629
  remaining activity at 3.75 µM: 101%

## CC(C)Cc1ccc(C(C)C(=O)O)cc1 (racemic)
[1]; Well no.=1011
  remaining activity at 1.25 µM: 100%
[2]; Well no.=1011
  remaining activity at 3.75 µM: 99.6%

## N[C@H](C(=O)O)c1cccc(O)c1 (racemic)
[1]; Well no.=476
  remaining activity at 1.25 µM: 101%
[2]; Well no.=476
  remaining activity at 3.75 µM: 97%

## NCC(O)c1ccc(O)cc1 (racemic)
[1]; Well no.=1038
  remaining activity at 1.25 µM: 97.4%
[2]; Well no.=1038
  remaining activity at 3.75 µM: 95.7%

## C[C@H](Nc1ccc(Cl)cc1)C(=O)O (racemic)
[1]; Well no.=230
  remaining activity at 1.25 µM: 95.2%
[2]; Well no.=230
  remaining activity at 3.75 µM: 97.1%

## CNC[C@H](O)c1ccc(O)c(O)c1 (racemic)
[1]; Well no.=605
  remaining activity at 1.25 µM: 99.5%
[2]; Well no.=605
  remaining activity at 3.75 µM: 99.2%

## NC(CCCP(=O)(O)O)C(=O)O (racemic)
[1]; Well no.=65
  remaining activity at 1.25 µM: 103%
[2]; Well no.=65
  remaining activity at 3.75 µM: 97.5%

## CC(C)(C)[C@]1(O)CCN2C[C@H]3c4ccccc4CCc4cccc(c43)[C@@H]2C1 (racemic)
[1]; Well no.=135
  remaining activity at 1.25 µM: 101%
[2]; Well no.=135
  remaining activity at 3.75 µM: 102%

## COc1cc(CC(C)N)c(OC)cc1I (racemic)
[1]; Well no.=686
  remaining activity at 1.25 µM: 94.3%
[2]; Well no.=686
  remaining activity at 3.75 µM: 92.3%

## O=C(O)C1CCCNC1 (racemic)
[1]; Well no.=195
  remaining activity at 1.25 µM: 102%
[2]; Well no.=195
  remaining activity at 3.75 µM: 97.6%

## NCC(CC(=O)O)c1ccc(Cl)cc1 (racemic)
[1]; Well no.=31
  remaining activity at 1.25 µM: 96.2%
[2]; Well no.=31
  remaining activity at 3.75 µM: 97.2%

## CCCN(CCC)C1CCc2cccc(O)c2C1 (racemic)
[1]; Well no.=470
  remaining activity at 1.25 µM: 99.9%
[2]; Well no.=470
  remaining activity at 3.75 µM: 98.3%

## COc1ccc(CCN(C)CCCC(C#N)(c2cc(OC)c(OC)c(OC)c2)C(C)C)cc1OC (racemic)
[1]; Well no.=1026
  remaining activity at 1.25 µM: 94.4%
[2]; Well no.=1026
  remaining activity at 3.75 µM: 98.1%

## COC(=O)C1=C(C)NC(C)=C([N+](=O)[O-])C1c1ccccc1C(F)(F)F (racemic)
[1]; Well no.=133
  remaining activity at 1.25 µM: 108%
[2]; Well no.=133
  remaining activity at 3.75 µM: 105%

## N[C@H](C(=O)O)c1cc(O)no1 (racemic)
[1]; Well no.=819
  remaining activity at 1.25 µM: 98.4%
[2]; Well no.=819
  remaining activity at 3.75 µM: 98.7%

## NC(CP(=O)(O)O)C(=O)O (racemic)
[1]; Well no.=303
  remaining activity at 1.25 µM: 99.2%
[2]; Well no.=303
  remaining activity at 3.75 µM: 100%

## CC(C)NCC(O)COc1ccc(CC(N)=O)cc1 (racemic)
[1]; Well no.=196
  remaining activity at 1.25 µM: 96.7%
[2]; Well no.=196
  remaining activity at 3.75 µM: 99.1%

## O=C(O)CCCCC1CCSS1 (racemic)
[1]; Well no.=1195
  remaining activity at 1.25 µM: 102%
[2]; Well no.=1195
  remaining activity at 3.75 µM: 101%

## CC1(NC(=O)CBr)CCC(C(C)(C)NCC(O)COc2cccc3[nH]ccc23)CC1 (racemic)
[1]; Well no.=1215
  remaining activity at 1.25 µM: 99.4%
[2]; Well no.=1215
  remaining activity at 3.75 µM: 102%
